From patent US20050282743A1, “Molecular interactions in cells” (Arbor Vita Corporation, priority 2001, published 2005)
Ends that are not written are not given here. Peptide text beside a SMILES is read from it. * marks the point of attachment. Biotin = O=C1N[C@H]2[C@H](CS[C@H]2CCCCC(=O)*)N1

How the values were obtained:
Experiment in all cases: G' assay (10 uM PL peptide), results of TABLE 7 and TABLE 12
Format in all cases: binding
[1] = molecular target: T1, PDZ protein (GST-PDZ fusion) (Homo sapiens, UniProt P50479); settings: PDZ LIM RIL, PDZ Domain 1
T1 construct: made in house; host or cells: E. coli (DH5alpha, BL21 or JM109)
T1 sequence (P50479 1-330): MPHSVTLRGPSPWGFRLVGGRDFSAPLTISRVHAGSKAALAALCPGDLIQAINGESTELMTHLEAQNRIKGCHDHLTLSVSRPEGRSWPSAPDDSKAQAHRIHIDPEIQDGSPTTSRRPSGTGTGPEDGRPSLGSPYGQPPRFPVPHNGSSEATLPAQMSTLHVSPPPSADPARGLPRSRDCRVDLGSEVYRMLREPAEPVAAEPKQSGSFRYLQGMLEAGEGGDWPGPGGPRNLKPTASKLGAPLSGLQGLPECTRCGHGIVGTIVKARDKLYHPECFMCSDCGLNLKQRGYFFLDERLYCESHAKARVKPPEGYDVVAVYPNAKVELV
Procedure, shortened: (§1)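 Same steps as the G-zero format, apart from a peptide concentration of 10 uM in place of 20 uM in step 2. Amino-terminally biotinylated PL peptides bind GST-PDZ fusions, and retained peptide is quantified by 450 nm absorbance.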

[2] = molecular target: T2, PDZ protein (GST-PDZ fusion) (Homo sapiens, UniProt Q96RT1); settings: PDZ Erbin, PDZ Domain 1
T2 construct: made in house; host or cells: E. coli (DH5alpha, BL21 or JM109)
Procedure, shortened: as §1

[3] = molecular target: T3, PDZ protein (GST-PDZ fusion) (Homo sapiens, UniProt O14641); settings: PDZ DVL2, PDZ Domain 1
T3 construct: made in house; host or cells: E. coli (DH5alpha, BL21 or JM109)
T3 sequence (O14641 1-736): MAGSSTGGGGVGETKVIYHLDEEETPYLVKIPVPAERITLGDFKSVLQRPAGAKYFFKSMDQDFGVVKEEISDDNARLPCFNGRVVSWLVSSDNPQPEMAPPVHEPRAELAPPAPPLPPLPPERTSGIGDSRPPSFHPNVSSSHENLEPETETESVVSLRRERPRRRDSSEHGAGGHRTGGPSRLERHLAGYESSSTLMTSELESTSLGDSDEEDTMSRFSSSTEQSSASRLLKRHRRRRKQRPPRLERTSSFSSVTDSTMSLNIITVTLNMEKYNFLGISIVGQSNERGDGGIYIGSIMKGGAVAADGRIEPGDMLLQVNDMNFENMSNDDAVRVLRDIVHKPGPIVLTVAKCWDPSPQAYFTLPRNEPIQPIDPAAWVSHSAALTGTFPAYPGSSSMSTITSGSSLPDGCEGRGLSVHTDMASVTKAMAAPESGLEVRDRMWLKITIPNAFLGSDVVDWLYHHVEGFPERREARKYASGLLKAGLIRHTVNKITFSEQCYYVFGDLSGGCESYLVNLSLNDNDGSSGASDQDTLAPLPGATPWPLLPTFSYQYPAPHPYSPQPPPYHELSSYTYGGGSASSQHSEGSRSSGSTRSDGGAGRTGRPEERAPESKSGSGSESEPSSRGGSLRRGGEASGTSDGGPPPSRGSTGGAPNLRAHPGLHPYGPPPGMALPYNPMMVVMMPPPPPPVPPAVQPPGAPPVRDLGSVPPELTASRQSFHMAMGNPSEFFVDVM
Procedure, shortened: as §1

[4] = molecular target: T4, PDZ protein (GST-PDZ fusion) (Homo sapiens, UniProt Q96JY6); settings: PDZ LIM-Mystique, PDZ Domain 1
T4 construct: made in house; host or cells: E. coli (DH5alpha, BL21 or JM109)
T4 sequence (Q96JY6 1-352): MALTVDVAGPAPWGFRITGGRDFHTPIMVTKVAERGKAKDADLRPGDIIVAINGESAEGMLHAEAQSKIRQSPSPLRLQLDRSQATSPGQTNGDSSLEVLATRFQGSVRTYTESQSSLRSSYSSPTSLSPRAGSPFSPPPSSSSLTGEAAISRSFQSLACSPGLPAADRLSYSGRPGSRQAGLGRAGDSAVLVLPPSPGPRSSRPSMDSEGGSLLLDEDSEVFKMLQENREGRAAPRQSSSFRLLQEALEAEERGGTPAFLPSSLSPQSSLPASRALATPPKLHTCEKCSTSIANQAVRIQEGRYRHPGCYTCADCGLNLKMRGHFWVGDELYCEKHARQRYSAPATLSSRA
Procedure, shortened: as §1

[5] = molecular target: T5, PDZ protein (GST-PDZ fusion) (Homo sapiens, UniProt Q9C0E4)
T5 construct: made in house; host or cells: E. coli (DH5alpha, BL21 or JM109)
Procedure, shortened: as §1

T2 sequence (Q96RT1 whole entry, the tested form may be a part): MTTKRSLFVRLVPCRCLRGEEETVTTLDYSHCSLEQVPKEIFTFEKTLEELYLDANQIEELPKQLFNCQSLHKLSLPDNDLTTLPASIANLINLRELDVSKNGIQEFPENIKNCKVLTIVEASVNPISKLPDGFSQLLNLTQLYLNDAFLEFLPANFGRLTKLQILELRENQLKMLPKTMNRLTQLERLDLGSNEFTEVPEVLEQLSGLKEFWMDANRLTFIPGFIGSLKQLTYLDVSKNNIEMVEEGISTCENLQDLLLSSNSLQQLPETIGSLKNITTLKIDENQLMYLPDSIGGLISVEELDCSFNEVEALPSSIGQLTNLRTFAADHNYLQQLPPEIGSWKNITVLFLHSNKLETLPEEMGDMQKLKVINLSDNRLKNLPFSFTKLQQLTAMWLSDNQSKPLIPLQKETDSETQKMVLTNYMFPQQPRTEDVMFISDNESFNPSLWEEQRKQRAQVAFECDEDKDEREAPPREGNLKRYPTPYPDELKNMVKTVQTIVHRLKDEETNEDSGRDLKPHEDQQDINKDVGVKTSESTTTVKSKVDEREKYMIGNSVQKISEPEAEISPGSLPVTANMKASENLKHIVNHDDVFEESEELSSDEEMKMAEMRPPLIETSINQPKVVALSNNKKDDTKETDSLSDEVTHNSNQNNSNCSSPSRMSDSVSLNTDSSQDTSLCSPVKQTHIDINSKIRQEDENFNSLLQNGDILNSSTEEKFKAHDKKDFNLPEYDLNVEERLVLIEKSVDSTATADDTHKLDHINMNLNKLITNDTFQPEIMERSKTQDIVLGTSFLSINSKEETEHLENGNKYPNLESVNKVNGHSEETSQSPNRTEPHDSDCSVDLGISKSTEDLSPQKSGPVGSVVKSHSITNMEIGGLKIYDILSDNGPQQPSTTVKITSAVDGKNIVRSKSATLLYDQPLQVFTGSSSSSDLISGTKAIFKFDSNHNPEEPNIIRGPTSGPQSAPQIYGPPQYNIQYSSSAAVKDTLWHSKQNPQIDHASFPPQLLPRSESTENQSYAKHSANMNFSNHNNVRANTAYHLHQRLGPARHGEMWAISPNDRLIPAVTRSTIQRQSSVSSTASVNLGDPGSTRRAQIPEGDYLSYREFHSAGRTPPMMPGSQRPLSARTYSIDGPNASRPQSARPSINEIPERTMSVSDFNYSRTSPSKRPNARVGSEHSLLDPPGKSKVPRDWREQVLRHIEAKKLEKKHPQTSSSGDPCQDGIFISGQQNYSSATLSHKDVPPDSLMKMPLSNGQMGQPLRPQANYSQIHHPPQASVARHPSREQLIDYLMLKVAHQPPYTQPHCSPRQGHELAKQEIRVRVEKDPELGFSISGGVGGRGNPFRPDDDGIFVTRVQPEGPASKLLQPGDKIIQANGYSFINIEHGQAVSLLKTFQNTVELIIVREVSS
T5 sequence (Q9C0E4 whole entry, the tested form may be a part): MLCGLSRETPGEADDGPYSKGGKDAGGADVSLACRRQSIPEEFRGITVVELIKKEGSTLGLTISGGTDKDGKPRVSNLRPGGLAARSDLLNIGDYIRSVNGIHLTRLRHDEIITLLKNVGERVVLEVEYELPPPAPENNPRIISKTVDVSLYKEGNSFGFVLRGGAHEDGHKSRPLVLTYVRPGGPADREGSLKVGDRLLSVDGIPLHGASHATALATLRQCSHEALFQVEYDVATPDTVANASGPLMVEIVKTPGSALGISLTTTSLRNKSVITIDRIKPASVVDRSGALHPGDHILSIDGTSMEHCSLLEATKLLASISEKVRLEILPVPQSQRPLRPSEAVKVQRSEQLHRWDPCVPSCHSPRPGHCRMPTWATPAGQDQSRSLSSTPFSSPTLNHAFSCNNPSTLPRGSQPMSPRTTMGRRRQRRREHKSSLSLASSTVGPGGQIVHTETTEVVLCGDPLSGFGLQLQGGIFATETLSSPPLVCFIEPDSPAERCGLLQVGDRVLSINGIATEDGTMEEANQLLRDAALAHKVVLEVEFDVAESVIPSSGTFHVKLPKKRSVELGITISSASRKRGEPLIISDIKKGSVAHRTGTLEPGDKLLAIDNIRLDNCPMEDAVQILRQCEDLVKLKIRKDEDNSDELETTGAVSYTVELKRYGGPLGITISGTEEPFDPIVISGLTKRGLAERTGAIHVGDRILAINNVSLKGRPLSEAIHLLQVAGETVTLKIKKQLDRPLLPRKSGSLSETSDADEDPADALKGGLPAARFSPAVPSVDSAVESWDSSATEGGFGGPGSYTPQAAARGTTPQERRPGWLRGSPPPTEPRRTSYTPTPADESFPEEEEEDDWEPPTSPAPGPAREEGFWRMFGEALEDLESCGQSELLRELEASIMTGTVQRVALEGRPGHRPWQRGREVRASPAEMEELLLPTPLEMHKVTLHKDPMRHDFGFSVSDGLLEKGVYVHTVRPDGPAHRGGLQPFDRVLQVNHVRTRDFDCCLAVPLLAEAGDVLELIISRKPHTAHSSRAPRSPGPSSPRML

Classification [3] | Classification ([5]; PDZ KIAA1719, PDZ Domain 6) | Compound | Classification [1] | Classification [2] | Classification [4] | Classification ([5]; PDZ KIAA1719, PDZ Domain 5)
5 (A450 nm of 4 more than 2× repeated) | 5 (A450 nm of 4 more than 2× repeated) | ELLQFCRTPNPALKNGQYWV (Biotin-ELLQFCRTPNPALKNGQYWV) | 2 (A450 nm 1-2) | 3 (A450 nm 2-3) | 2 (A450 nm 1-2) | –
– | – | CSCC[C@H](NC(=O)[C@H](C)NC(=O)[C@H](CCCNC(=N)N)NC(=O)CNC(=O)[C@@H](NC(=O)[C@H](Cc1c[nH]c2ccccc12)NC(=O)[C@H](CCCNC(=N)N)NC(=O)CNC(=O)CCCC[C@@H]1SC[C@@H]2NC(=O)N[C@@H]21)[C@@H](C)O)C(=O)N[C@@H](CO)C(=O)N[C@@H](C)C(=O)N[C@@H](Cc1c[nH]c2ccccc12)C(=O)N[C@@H](CCCCN)C(=O)N1CCC[C@H]1C(=O)N[C@H](C(=O)N[C@@H](CCCNC(=N)N)C(=O)N[C@@H](CCCNC(=N)N)C(=O)N[C@@H](CCC(=O)O)C(=O)N[C@H](C(=O)N[C@@H](CCC(=O)O)C(=O)N[C@H](C(=O)O)C(C)C)[C@@H](C)O)[C@@H](C)O [HPV E6 #35 (modified)] (Biotin-GRWTGRAMSAWKPTRRETEV-OH; C-terminus assumed) | 4 (A450 nm 3-4) | 2 (A450 nm 1-2) | 1 (A450 nm 0-1) | 1 (A450 nm 0-1)
– | – | CC[C@H](C)[C@H](NC(=O)[C@H](CCC(N)=O)NC(=O)CCCC[C@@H]1SC[C@@H]2NC(=O)N[C@@H]21)C(=O)N[C@@H](CO)C(=O)N1CCC[C@H]1C(=O)NCC(=O)NCC(=O)N[C@@H](CC(C)C)C(=O)N[C@@H](CCC(=O)O)C(=O)N1CCC[C@H]1C(=O)N1CCC[C@H]1C(=O)N[C@@H](CO)C(=O)N[C@@H](CCC(=O)O)C(=O)N[C@@H](CCCCN)C(=O)N[C@@H](Cc1c[nH]cn1)C(=O)N[C@@H](Cc1ccccc1)C(=O)N[C@@H](CCCNC(=N)N)C(=O)N[C@@H](CCC(=O)O)C(=O)N[C@H](C(=O)N[C@@H](CCC(=O)O)C(=O)N[C@H](C(=O)O)C(C)C)[C@@H](C)O [Tax] | 1 (A450 nm 0-1) | 5 (A450 nm of 4 more than 2× repeated) | 1 (A450 nm 0-1) | –
